What was measured:
Pseudomonas aeruginosa = details: relative to istamycin A; earlier filings; cited from earlier work
mice = assay: Acute toxicity by intravenous injection in mice
[1] = tested on: Gram-negative and Gram-positive bacteria; assay: Antibacterial activity, overall statement; format: cell-based
Protocol: The antibacterial spectra of 3-O-demethylistamycin B.sesquicarbonate and 3-O-demethyl-2"-N-formimidoylistamycin B.disulphate.trihydrate are shown in Table 2, along with that of istamycin B for comparison purposes.
*^1 Determined according to a standard serial dilution method on
nutrient agar plates which were incubated at 37° C. for 17 hours.

in vivo = details: mouse, iv

| Compound | antibacterial activity against Pseudomonas aeruginosa compared with istamycin A (Pseudomonas aeruginosa) | toxicity (in words) (mice) | antibacterial activity (in words) [1] | MTD (in vivo) |
| --- | --- | --- | --- | --- |
| di-N^6',O^3 -demethylistamycin A | significantly higher than that of istamycin A |  |  |  |
| CNCC1CCC(N)C(OC2C(N)CC(O)C(NC)C2O)O1 (stereo not shown) [3-O-Demethylistamycin BO] |  | low toxicity | poor antibacterial activity | 160 mg/kg |

From patent publication US4499083A, “3-O-Demethyl derivatives of the istamycin B series of compounds” (Zaidan Hojin Biseibutsu Kagaku Kenkyu Kai, priority 1980, dated 1985)
